The source of these data is ChEMBL document CHEMBL2202993, “Non-proteinogenic amino acids in the pThr-2 position of a pentamer peptide that confer high binding affinity for the polo box domain (PBD) of polo-like kinase 1 (Plk1)” (Bioorg Med Chem Lett, 2012).

pIC50: −log10 of the molar value. Numbered stars: 1 amine (or outer) side, 2 acyl side, 3 side chain; on linkers, the order of the positions; unused ones are H or OH. Square brackets hold non-standard residues; d marks the D form. Peptide text beside a SMILES is read from it. X2 = O=C([C@H](Cc1cn(CCCCCCCCc2ccccc2)c2ccccc12)N[*:1])[*:2]; X1 = O=C([C@H](Cc1cn(CCCCCCCCc2ccccc2)cn1)N[*:1])[*:2]; pT = C[C@@H](OP(=O)(O)O)[C@H](N)C(=O)O

In this test the target is Serine/threonine-protein kinase PLK1 (Homo sapiens, UniProt P53350). Kind of test: Competitive binding affinity to GFP-HA-fused PLK1 polo box domain expressed in HEK293A cells using biotinylated p-T38 peptide as substrate after 1 hr by ELISA. Set-up: species or system HEK293-A.
Chain of Serine/threonine-protein kinase PLK1 (P53350 whole entry, the tested form may be a part): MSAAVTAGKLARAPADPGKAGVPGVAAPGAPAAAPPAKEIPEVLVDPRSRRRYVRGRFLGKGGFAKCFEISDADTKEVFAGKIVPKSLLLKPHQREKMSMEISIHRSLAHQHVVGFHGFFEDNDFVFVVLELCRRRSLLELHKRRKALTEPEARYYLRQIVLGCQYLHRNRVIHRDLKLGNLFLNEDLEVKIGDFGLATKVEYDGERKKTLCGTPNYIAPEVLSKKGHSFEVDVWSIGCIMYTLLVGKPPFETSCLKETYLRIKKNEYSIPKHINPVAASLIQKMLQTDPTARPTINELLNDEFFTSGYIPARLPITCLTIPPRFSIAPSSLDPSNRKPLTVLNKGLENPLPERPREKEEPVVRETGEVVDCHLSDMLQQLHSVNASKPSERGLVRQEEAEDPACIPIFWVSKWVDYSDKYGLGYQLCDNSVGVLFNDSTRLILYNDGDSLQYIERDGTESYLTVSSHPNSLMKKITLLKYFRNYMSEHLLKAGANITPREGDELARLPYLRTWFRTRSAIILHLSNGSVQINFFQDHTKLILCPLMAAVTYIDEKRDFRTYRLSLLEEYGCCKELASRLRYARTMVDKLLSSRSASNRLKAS

Molecule `CC(=O)N1CCC[C@H]1C(=O)N[C@@H](CC(C)C)C(=O)N[C@@H](Cc1cn(CCCCCCCCc2ccccc2)c2ccccc12)C(=O)N[C@@H](CO)C(=O)N[C@H](C(N)=O)[C@@H](C)OP(=O)(O)O` (Ac-PL[X2]S[pT]-NH2) had a pIC50 of 5.03.
In the case of `CC(=O)N1CCC[C@H]1C(=O)N[C@@H](CC(C)C)C(=O)N[C@@H](Cc1cn(CCCCCCCCc2ccccc2)cn1)C(=O)N[C@@H](CO)C(=O)N[C@H](C(N)=O)[C@@H](C)OP(=O)(O)O` (Ac-PL[X1]S[pT]-NH2) it was 6.49.
